pEC50: −log10 of the molar value.
Biological target: Guanine nucleotide-binding protein G(o) subunit alpha (Homo sapiens, UniProt P09471)
Experiment: RGS16-Galphao interaction regulators, SAR follow-up, biochemical, multiplexed bead assay, additional SAR round (AID 2828)

Guanine nucleotide-binding protein G(o) subunit alpha, sequence (P09471 whole entry): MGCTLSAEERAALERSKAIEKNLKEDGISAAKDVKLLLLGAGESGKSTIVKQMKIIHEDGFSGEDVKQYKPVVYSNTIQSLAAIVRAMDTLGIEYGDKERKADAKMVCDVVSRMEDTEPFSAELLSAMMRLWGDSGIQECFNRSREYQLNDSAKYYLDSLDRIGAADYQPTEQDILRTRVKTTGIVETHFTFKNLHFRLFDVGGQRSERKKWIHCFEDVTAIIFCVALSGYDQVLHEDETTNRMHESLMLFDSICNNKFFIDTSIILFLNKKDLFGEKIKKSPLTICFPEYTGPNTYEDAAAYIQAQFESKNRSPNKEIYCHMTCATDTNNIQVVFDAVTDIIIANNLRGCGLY

pEC50, < 4.52:
O=C(c1sc2cc([N+](=O)[O-])ccc2c1Cl)N1CCNCC1
O=C(NCCCN1CCOCC1)c1sc2cc([N+](=O)[O-])ccc2c1Cl [3-chloranyl-N-(3-morpholin-4-ylpropyl)-6-nitro-1-benzothiophene-2-carboxamide]
O=C(NCCCn1ccnc1)c1sc2cc([N+](=O)[O-])ccc2c1Cl [3-chloro-N-[3-(1-imidazolyl)propyl]-6-nitro-1-benzothiophene-2-carboxamide]
NC(=O)c1sc2cc([N+](=O)[O-])ccc2c1Cl [KSC-1-100]
Cc1ccc2c(Cl)c(C(=O)NCCCN3CCOCC3)sc2c1 [KUC103874N]

From BindingDB's records for doi:10.7270/Q2XS5SVJ (Nmmlsc, 2010)
